Measurements as given in the NIST ThermoML archive (doi:10.1021/je049671t).
Numbers after ± are expanded uncertainties.

Test: xn = mol fraction of the nth substance listed
Conditions: Liquid, Vibrating tube method

CC(C)C [2-methylpropane] + CCCC
Conditions	mass density [kg/m3]
260 K, 6987.3 kPa, x2 = 0.5	613.2 ± 0.33
260 K, 7000.3 kPa, x2 = 0.25	608.81 ± 0.33
260 K, 7024.3 kPa, x2 = 0.75	617.88 ± 0.33
280 K, 491.4 kPa, x2 = 0.25	578.14 ± 0.27
280 K, 494.5 kPa, x2 = 0.75	588.49 ± 0.27
280 K, 514.1 kPa, x2 = 0.5	583.32 ± 0.27
280 K, 997.4 kPa, x2 = 0.5	584.09 ± 0.28
280 K, 997.5 kPa, x2 = 0.25	578.99 ± 0.28
280 K, 997.9 kPa, x2 = 0.75	589.24 ± 0.27
280 K, 1496 kPa, x2 = 0.25	579.79 ± 0.28
280 K, 1499.8 kPa, x2 = 0.75	590.03 ± 0.28
280 K, 1515.6 kPa, x2 = 0.5	584.89 ± 0.28
280 K, 1990.8 kPa, x2 = 0.5	585.62 ± 0.29
280 K, 1991.8 kPa, x2 = 0.75	590.76 ± 0.28
280 K, 2009.2 kPa, x2 = 0.25	580.63 ± 0.29
280 K, 2501 kPa, x2 = 0.75	591.51 ± 0.29
280 K, 2510.6 kPa, x2 = 0.5	586.43 ± 0.29
280 K, 2512.7 kPa, x2 = 0.25	581.42 ± 0.29
280 K, 3001.9 kPa, x2 = 0.75	592.24 ± 0.29
280 K, 3016.2 kPa, x2 = 0.5	587.2 ± 0.3
280 K, 3023 kPa, x2 = 0.25	582.23 ± 0.3
280 K, 3506.9 kPa, x2 = 0.25	582.98 ± 0.3
280 K, 3511.3 kPa, x2 = 0.75	592.97 ± 0.3
280 K, 3532.6 kPa, x2 = 0.5	587.97 ± 0.3
280 K, 4008 kPa, x2 = 0.25	583.74 ± 0.31
280 K, 4010.5 kPa, x2 = 0.75	593.64 ± 0.3
280 K, 4012.8 kPa, x2 = 0.5	588.67 ± 0.31
280 K, 4502.1 kPa, x2 = 0.75	594.34 ± 0.31
280 K, 4504.4 kPa, x2 = 0.25	584.53 ± 0.31
280 K, 4508.3 kPa, x2 = 0.5	589.4 ± 0.31
280 K, 4994.2 kPa, x2 = 0.75	595.02 ± 0.31
280 K, 5006.3 kPa, x2 = 0.25	585.27 ± 0.32
280 K, 5025.7 kPa, x2 = 0.5	590.15 ± 0.32
280 K, 5479.3 kPa, x2 = 0.5	590.82 ± 0.32
280 K, 5523.8 kPa, x2 = 0.25	586.04 ± 0.32
280 K, 5525.5 kPa, x2 = 0.75	595.77 ± 0.32
280 K, 5942.8 kPa, x2 = 0.75	596.37 ± 0.32
280 K, 5993.3 kPa, x2 = 0.5	591.55 ± 0.33
280 K, 6024.7 kPa, x2 = 0.25	586.78 ± 0.33
280 K, 6475.5 kPa, x2 = 0.75	597.09 ± 0.33
280 K, 6510.8 kPa, x2 = 0.25	587.5 ± 0.34
280 K, 6528.5 kPa, x2 = 0.5	592.3 ± 0.33
280 K, 6953.9 kPa, x2 = 0.5	592.89 ± 0.34
280 K, 6984.1 kPa, x2 = 0.25	588.18 ± 0.34
280 K, 7039.4 kPa, x2 = 0.75	597.8 ± 0.34
300 K, 312 kPa, x2 = 0.5	559.4 ± 0.28
300 K, 502.9 kPa, x2 = 0.25	554.17 ± 0.28
300 K, 505.7 kPa, x2 = 0.75	565.16 ± 0.28
300 K, 510.2 kPa, x2 = 0.5	559.82 ± 0.28
300 K, 983.9 kPa, x2 = 0.5	560.78 ± 0.28
300 K, 999.4 kPa, x2 = 0.25	555.23 ± 0.28
300 K, 1002.4 kPa, x2 = 0.75	566.11 ± 0.28
300 K, 1493 kPa, x2 = 0.75	567.04 ± 0.29
300 K, 1497.1 kPa, x2 = 0.25	556.26 ± 0.29
300 K, 1509.8 kPa, x2 = 0.5	561.83 ± 0.29
300 K, 1992.8 kPa, x2 = 0.5	562.77 ± 0.29
300 K, 1997.4 kPa, x2 = 0.25	557.29 ± 0.29
300 K, 2007.5 kPa, x2 = 0.75	568 ± 0.29
300 K, 2498.6 kPa, x2 = 0.25	558.33 ± 0.3
300 K, 2510.2 kPa, x2 = 0.75	568.9 ± 0.3
300 K, 2513.9 kPa, x2 = 0.5	563.78 ± 0.3
300 K, 2995.9 kPa, x2 = 0.75	569.79 ± 0.3
300 K, 3011.4 kPa, x2 = 0.5	564.72 ± 0.3
300 K, 3014 kPa, x2 = 0.25	559.36 ± 0.31
300 K, 3476.1 kPa, x2 = 0.5	565.59 ± 0.31
300 K, 3483.6 kPa, x2 = 0.75	570.68 ± 0.31
300 K, 3510.6 kPa, x2 = 0.25	560.33 ± 0.31
300 K, 3988.4 kPa, x2 = 0.5	566.54 ± 0.31
300 K, 4007.7 kPa, x2 = 0.25	561.28 ± 0.32
300 K, 4013.5 kPa, x2 = 0.75	571.62 ± 0.31
300 K, 4453.4 kPa, x2 = 0.5	567.4 ± 0.32
300 K, 4467 kPa, x2 = 0.75	572.38 ± 0.32
300 K, 4513.9 kPa, x2 = 0.25	562.25 ± 0.32
300 K, 4997.8 kPa, x2 = 0.75	573.31 ± 0.32
300 K, 5016.3 kPa, x2 = 0.25	563.17 ± 0.33
300 K, 5026.1 kPa, x2 = 0.5	568.4 ± 0.33
300 K, 5472.7 kPa, x2 = 0.5	569.19 ± 0.33
300 K, 5473.2 kPa, x2 = 0.75	574.11 ± 0.33

mass density [kg/m3]
Conditions	x2 = 0.25	x2 = 0.5	x2 = 0.75
260 K	600.04 ± 0.26	604.76 ± 0.26	609.84 ± 0.26
280 K	577.61 ± 0.27	582.79 ± 0.27	588.07 ± 0.27
